# Test results published in PubChem BioAssay AID504561 (Southern Research Specialized Biocontainment Screening …, 2011).
# Tested on: HeLa-CD4-LTR-beta-gal/HL2/3 cell fusion, beta-gal luminescence
# Assay: HIV-1 entry blockers, X4 Env-mediated fusion – HL2/3 with HeLa-CD4 reporter cells, 2% serum, set 2, dose response (AID 504561)
row,IC50,Compound
1,4.55 µM,COc1ccccc1Cn1c(O)cc2nn(-c3nc4ccccc4s3)c(=O)c-2c1C
2,5.42 µM,Cc1c2c(=O)n(-c3nc4ccccc4s3)nc-2cc(O)n1Cc1ccccc1Cl
3,5.71 µM,Cc1c2c(=O)n(-c3nc4ccccc4s3)nc-2cc(O)n1Cc1cccnc1
4,5.2 µM,Cc1c2c(=O)n(-c3nc4ccccc4s3)nc-2cc(O)n1CCC(C)C
5,7.14 µM,Cc1c2c(=O)n(-c3nc4ccccc4s3)nc-2cc(O)n1CCc1cccs1
6,7.91 µM,COc1ccc(Cn2c(O)cc3nn(-c4nc5ccccc5s4)c(=O)c-3c2C)cc1
7,9.72 µM,Cc1c2c(=O)n(-c3nc4ccccc4s3)nc-2cc(O)n1CCc1ccc(O)cc1
8,4.77 µM,Cc1c2c(=O)n(-c3nc4ccccc4s3)nc-2cc(O)n1Cc1cccs1
9,3.56 µM,Cc1c2c(=O)n(-c3nc4ccccc4s3)nc-2cc(O)n1C1CC1
10,27.4 µM,Cc1c2c(=O)n(-c3nc4ccccc4s3)nc-2cc(O)n1Cc1ccccc1
11,6.94 µM,COc1ccc(CCn2c(O)cc3nn(-c4nc5ccccc5s4)c(=O)c-3c2C)cc1
12,9.59 µM,Cc1c2c(=O)n(-c3nc4ccccc4s3)nc-2cc(O)n1Cc1ccncc1
13,3.9 µM,Cc1c2c(=O)n(-c3nc4ccccc4s3)nc-2cc(O)n1Cc1ccc(F)cc1
